Converted amounts (≈) assume the structure as drawn.
Key:
Test in all cases: In vitro antibacterial evaluation: minimum inhibitory concentration (MIC), broth dilution method
Type in all cases: cell-based
Enterococcus sp. = details: 18 hours at 35° C.
Outline: (§1)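 NCCLS M7-A2 broth dilution with Mueller-Hinton II, testing 64-0.06 μg/mL antibiotic against 5×10^5 CFU/mL inocula. Test strains include recent methicillin-, penicillin- or vancomycin-resistant clinical isolates. MIC is the lowest concentration preventing growth.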

Streptococcus sp. = details: 18 hours at 35° C.
Outline: as §1

Escherichia coli = details: 18 hours at 35° C.
Outline: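 MIC read as lowest drug level preventing visible growth. Organisms at 5×10^5 CFU/mL were exposed to a 64-0.06 μg/mL dilution series in Muller-Hinton II […] following NCCLS broth dilution standard M7-A2.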

Staphylococcus sp. = system: Staphylococcus sp.
Outline: as §1

[1] = broth dilution, inoculum 5×10^5 CFU/mL

MIC Enterococcus avium (GC 4558) (Enterococcus sp.; Enterococcus avium (GC 4558)): 2 µg/mL (≈ 1.43 µM) | MIC Enterococcus faecalis (ATCC 29212) (Enterococcus sp.; Enterococcus faecalis (ATCC 29212)): 1 µg/mL (≈ 0.713 µM) | MIC Enterococcus faecalis (GC 2242) (Enterococcus sp.; Enterococcus faecalis (GC 2242)): 2 µg/mL (≈ 1.43 µM) | MIC Enterococcus faecalis (GC 2691) (Enterococcus sp.; Enterococcus faecalis (GC 2691)): 2 µg/mL (≈ 1.43 µM) | MIC Enterococcus faecalis (GC 3059) (Enterococcus sp.; Enterococcus faecalis (GC 3059)): 1 µg/mL (≈ 0.713 µM) | MIC Enterococcus faecalis (GC 4552) (Enterococcus sp.; Enterococcus faecalis (GC 4552)): 2 µg/mL (≈ 1.43 µM) | MIC Enterococcus faecalis (GC 4553) (Enterococcus sp.; Enterococcus faecalis (GC 4553)): 2 µg/mL (≈ 1.43 µM) | MIC Enterococcus faecalis (GC 4554) (Enterococcus sp.; Enterococcus faecalis (GC 4554)): 2 µg/mL (≈ 1.43 µM) | MIC Enterococcus faecalis (GC 6189) (Enterococcus sp.; Enterococcus faecalis (GC 6189)): 1 µg/mL (≈ 0.713 µM) | MIC Enterococcus faecium (GC 2243) (Enterococcus sp.; Enterococcus faecium (GC 2243)): 2 µg/mL (≈ 1.43 µM) | MIC Enterococcus faecium (GC 4556) (Enterococcus sp.; Enterococcus faecium (GC 4556)): 1 µg/mL (≈ 0.713 µM) | MIC Enterococcus faecium (GC 4557) (Enterococcus sp.; Enterococcus faecium (GC 4557)): 2 µg/mL (≈ 1.43 µM) | MIC Enterococcus avium (GC 4558) (Enterococcus sp.; [1]): 2 µg/mL (≈ 1.43 µM) | MIC Enterococcus faecalis (ATCC 29212) (Enterococcus sp.; [1]): 1 µg/mL (≈ 0.713 µM) | MIC Enterococcus faecalis (GC 2242) (Enterococcus sp.; [1]): 2 µg/mL (≈ 1.43 µM) | MIC Enterococcus faecalis (GC 2691) (Enterococcus sp.; [1]): 2 µg/mL (≈ 1.43 µM) | MIC Enterococcus faecalis (GC 3059) (Enterococcus sp.; [1]): 1 µg/mL (≈ 0.713 µM) | MIC Enterococcus faecalis (GC 4552) (Enterococcus sp.; [1]): 2 µg/mL (≈ 1.43 µM) | MIC Enterococcus faecalis (GC 4553) (Enterococcus sp.; [1]): 2 µg/mL (≈ 1.43 µM) | MIC Enterococcus faecalis (GC 4554) (Enterococcus sp.; [1]): 2 µg/mL (≈ 1.43 µM) | MIC Enterococcus faecalis (GC 6189) (Enterococcus sp.; [1]): 1 µg/mL (≈ 0.713 µM) | MIC Enterococcus faecium (GC 2243) (Enterococcus sp.; [1]): 2 µg/mL (≈ 1.43 µM) | MIC Enterococcus faecium (GC 4556) (Enterococcus sp.; [1]): 1 µg/mL (≈ 0.713 µM) | MIC Enterococcus faecium (GC 4557) (Enterococcus sp.; [1]): 2 µg/mL (≈ 1.43 µM) | MIC Streptococcus agalactiae (GC 4564) (Streptococcus sp.; Streptococcus agalactiae (GC 4564)): 0.25 µg/mL (≈ 0.178 µM) | MIC Streptococcus pneumoniae (ATCC 6301) (Streptococcus sp.; Streptococcus pneumoniae (ATCC 6301)): <0.12 µg/mL | MIC Streptococcus pneumoniae (GC 1894) (Streptococcus sp.; Streptococcus pneumoniae (GC 1894)): <0.12 µg/mL | MIC Streptococcus pneumoniae (GC 4565) (Streptococcus sp.; Streptococcus pneumoniae (GC 4565)): <0.12 µg/mL | MIC Streptococcus pyogenes (GC 4563) (Streptococcus sp.; Streptococcus pyogenes (GC 4563)): 1 µg/mL (≈ 0.713 µM) | MIC Streptococcus agalactiae (GC 4564) (Streptococcus sp.; [1]): 0.25 µg/mL (≈ 0.178 µM) | MIC Streptococcus pneumoniae (ATCC 6301) (Streptococcus sp.; [1]): <0.12 µg/mL | MIC Streptococcus pneumoniae (GC 1894) (Streptococcus sp.; [1]): <0.12 µg/mL | MIC Streptococcus pneumoniae (GC 4565) (Streptococcus sp.; [1]): <0.12 µg/mL | MIC Streptococcus pyogenes (GC 4563) (Streptococcus sp.; [1]): 1 µg/mL (≈ 0.713 µM) | MIC Escherichia coli (ATCC 25922) (Escherichia coli; Escherichia coli (ATCC 25922)): 32 µg/mL (≈ 22.8 µM) | MIC Escherichia coli (GC 4559) (Escherichia coli; Escherichia coli (GC 4559)): 32 µg/mL (≈ 22.8 µM) | MIC Escherichia coli (GC 4560) (Escherichia coli; Escherichia coli (GC 4560)): 1 µg/mL (≈ 0.713 µM) | MIC Staphylococcus aureus (ATCC 29213) (Staphylococcus sp.; strain ATCC 29213): 1 µg/mL (≈ 0.713 µM) | MIC Staphylococcus aureus (GC 1131) (Staphylococcus sp.; strain GC 1131): 1 µg/mL (≈ 0.713 µM) | MIC Staphylococcus aureus (GC 3051) (Staphylococcus sp.; strain GC 3051): 1 µg/mL (≈ 0.713 µM) | MIC Staphylococcus aureus (GC 3053) (Staphylococcus sp.; strain GC 3053): 1 µg/mL (≈ 0.713 µM) | MIC Staphylococcus aureus (GC 4541) (Staphylococcus sp.; strain GC 4541): 1 µg/mL (≈ 0.713 µM) | MIC Staphylococcus aureus (GC 4542) (Staphylococcus sp.; strain GC 4542): 1 µg/mL (≈ 0.713 µM) | MIC Staphylococcus aureus-SMITH (GC 4543) (Staphylococcus sp.; strain GC 4543): 1 µg/mL (≈ 0.713 µM) | MIC Staphylococcus aureus (GC 4544) (Staphylococcus sp.; strain GC 4544): 1 µg/mL (≈ 0.713 µM) | MIC Staphylococcus aureus (GC 4545) (Staphylococcus sp.; strain GC 4545): 1 µg/mL (≈ 0.713 µM) | MIC Coagulase Negative Staphylococcus (GC 4547) (Staphylococcus sp.; strain GC 4547): 1 µg/mL (≈ 0.713 µM) | MIC Coagulase Negative Staphylococcus (GC 4548) (Staphylococcus sp.; strain GC 4548): 0.5 µg/mL (≈ 0.356 µM) | MIC Coagulase Negative Staphylococcus (GC 4549) (Staphylococcus sp.; strain GC 4549): 0.5 µg/mL (≈ 0.356 µM) | MIC Coagulase Negative Staphylococcus (GC 4551) (Staphylococcus sp.; strain GC 4551): 1 µg/mL (≈ 0.713 µM)
SMILES: CC(c1ccccc1)C1NC(=O)CNC(=O)C(CO)NC(=O)C(C(O)C2CNC(=N)N2C2OC(CO)C(O)C(O)C2O)NC(=O)C(C(O)C2CNC(=N)N2)NC(=O)C(Cc2ccc(OC3OC(CO)C(OC4OC5COC6(OC5C(O)C4O)C(C)CCCC6C)C(O)C3O)cc2)NC1=O (stereo not drawn) [Example 206, Cyclo[glycyl-β-methylphenylalanyl-O-[4-O-[4,6-O-(2,6-dimethylcyclohexylidene)hexopyranosyl]hexopyranosyl]tyrosyl-3-(2-iminoimidazolidin-4-yl)seryl-3-(3-hexopyranosyl-2-iminoimidazolidin-4-yl)serylseryl]]
MIC Staphylococcus haemolyticus (GC 4546) (Staphylococcus sp.; strain GC 4546): 0.5 µg/mL (≈ 0.356 µM)

Source: US8247211B2, “Glycopeptide antibiotics” (American Cyanamid Company, priority 2001, dated 2012)
